# Results from patent US20100041089A1, “IMPROVED METHOD FOR DETECTING CHEMICAL […]” (priority 2006, published 2010).
# Test system: yeast genes (expressed mRNA)
# Test: DNA chip measurement of expressed mRNA of yeast genes after culture with a toxic chemical substance
# Type: cell-based, Saccharomyces cerevisiae S288C
# Conditions: for level of expressed mRNA in the presence of chemical substance / level in the absence of chemical substance: cultured two hours with the chemical substance; for The level of expressed mRNA in the presence of chemical substance/The level of expressed mRNA in the absence of chemical substance: cultured two hours with substance
# Outline: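 Two-hour exposure of growing S. cerevisiae S288C (YPD, 25° C) to a sublethal toxicant preceded RNA isolation. Fluorescent cDNA was hybridized to a whole-genome array; a treated-to-untreated signal ratio of two or more was taken as significant.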
smiles,measurement,setting,value
"[Cl][Cd][Cl] [(2), CdCl2]","The level of expressed mRNA in the presence of chemical substance/The level of expressed mRNA in the absence of chemical substance, yeast gene YBR036C","gene YBR036C, Metabolism protein genes, DNA chip fluorescence ratio",1.7
same,"The level of expressed mRNA in the presence of chemical substance/The level of expressed mRNA in the absence of chemical substance, yeast gene YBR298C","gene YBR298C, Metabolism protein genes, DNA chip fluorescence ratio",1.0
same,"The level of expressed mRNA in the presence of chemical substance/The level of expressed mRNA in the absence of chemical substance, yeast gene YDL067C","gene YDL067C (mitochondria-located protein gene), yeast cultured two hours with chemical substance, DNA chip fluorescence ratio to control",1.0
same,"The level of expressed mRNA in the presence of chemical substance/The level of expressed mRNA in the absence of chemical substance, yeast gene YDL078C","gene YDL078C, Metabolism protein genes, DNA chip fluorescence ratio",1.1
same,"The level of expressed mRNA in the presence of chemical substance/The level of expressed mRNA in the absence of chemical substance, yeast gene YDL215C","gene YDL215C, Metabolism protein genes, DNA chip fluorescence ratio",1.5
same,"The level of expressed mRNA in the presence of chemical substance/The level of expressed mRNA in the absence of chemical substance, yeast gene YDR079W","gene YDR079W (mitochondria-located protein gene), yeast cultured two hours with chemical substance, DNA chip fluorescence ratio to control",1.1
same,"The level of expressed mRNA in the presence of chemical substance/The level of expressed mRNA in the absence of chemical substance, yeast gene YDR297W","gene YDR297W, Metabolism protein genes, DNA chip fluorescence ratio",0.8
same,"The level of expressed mRNA in the presence of chemical substance/The level of expressed mRNA in the absence of chemical substance, yeast gene YDR387C","gene YDR387C, Metabolism protein genes, DNA chip fluorescence ratio",0.9
same,"The level of expressed mRNA in the presence of chemical substance/The level of expressed mRNA in the absence of chemical substance, yeast gene YGL035C","gene YGL035C, Metabolism protein genes, DNA chip fluorescence ratio",1.4
same,"The level of expressed mRNA in the presence of chemical substance/The level of expressed mRNA in the absence of chemical substance, yeast gene YGR062C","gene YGR062C (mitochondria-located protein gene), yeast cultured two hours with chemical substance, DNA chip fluorescence ratio to control",1.0
same,"The level of expressed mRNA in the presence of chemical substance/The level of expressed mRNA in the absence of chemical substance, yeast gene YGR287C","gene YGR287C, Metabolism protein genes, DNA chip fluorescence ratio",1.0
same,"The level of expressed mRNA in the presence of chemical substance/The level of expressed mRNA in the absence of chemical substance, yeast gene YJL070C","gene YJL070C, Metabolism protein genes, DNA chip fluorescence ratio",0.9
same,"The level of expressed mRNA in the presence of chemical substance/The level of expressed mRNA in the absence of chemical substance, yeast gene YJL096W","gene YJL096W (mitochondria-located protein gene), yeast cultured two hours with chemical substance, DNA chip fluorescence ratio to control",1.0
same,"The level of expressed mRNA in the presence of chemical substance/The level of expressed mRNA in the absence of chemical substance, yeast gene YJL180C","gene YJL180C (mitochondria-located protein gene), yeast cultured two hours with chemical substance, DNA chip fluorescence ratio to control",1.6
same,"The level of expressed mRNA in the presence of chemical substance/The level of expressed mRNA in the absence of chemical substance, yeast gene YKR009C","gene YKR009C, Metabolism protein genes, DNA chip fluorescence ratio",1.2
same,"The level of expressed mRNA in the presence of chemical substance/The level of expressed mRNA in the absence of chemical substance, yeast gene YLR295C","gene YLR295C (mitochondria-located protein gene), yeast cultured two hours with chemical substance, DNA chip fluorescence ratio to control",1.1
same,"The level of expressed mRNA in the presence of chemical substance/The level of expressed mRNA in the absence of chemical substance, yeast gene YLR351C","gene YLR351C, Metabolism protein genes, DNA chip fluorescence ratio",1.4
same,"The level of expressed mRNA in the presence of chemical substance/The level of expressed mRNA in the absence of chemical substance, yeast gene YLR375W","gene YLR375W, Metabolism protein genes, DNA chip fluorescence ratio",1.5
same,"The level of expressed mRNA in the presence of chemical substance/The level of expressed mRNA in the absence of chemical substance, yeast gene YMR023C","gene YMR023C (mitochondria-located protein gene), yeast cultured two hours with chemical substance, DNA chip fluorescence ratio to control",1.3
same,"The level of expressed mRNA in the presence of chemical substance/The level of expressed mRNA in the absence of chemical substance, yeast gene YMR267W","gene YMR267W (mitochondria-located protein gene), yeast cultured two hours with chemical substance, DNA chip fluorescence ratio to control",1.8
same,"The level of expressed mRNA in the presence of chemical substance/The level of expressed mRNA in the absence of chemical substance, yeast gene YMR267W","gene YMR267W, Metabolism protein genes, DNA chip fluorescence ratio",1.8
same,"The level of expressed mRNA in the presence of chemical substance/The level of expressed mRNA in the absence of chemical substance, yeast gene YMR278W","gene YMR278W, Metabolism protein genes, DNA chip fluorescence ratio",1.7
same,"The level of expressed mRNA in the presence of chemical substance/The level of expressed mRNA in the absence of chemical substance, yeast gene YMR293C","gene YMR293C, Metabolism protein genes, DNA chip fluorescence ratio",1.5
same,"The level of expressed mRNA in the presence of chemical substance/The level of expressed mRNA in the absence of chemical substance, yeast gene YNL073W","gene YNL073W (mitochondria-located protein gene), yeast cultured two hours with chemical substance, DNA chip fluorescence ratio to control",1.4
same,"The level of expressed mRNA in the presence of chemical substance/The level of expressed mRNA in the absence of chemical substance, yeast gene YNR072W","gene YNR072W, Metabolism protein genes, DNA chip fluorescence ratio",1.5
same,"The level of expressed mRNA in the presence of chemical substance/The level of expressed mRNA in the absence of chemical substance, yeast gene YOL096C","gene YOL096C, Metabolism protein genes, DNA chip fluorescence ratio",1.0
same,"The level of expressed mRNA in the presence of chemical substance/The level of expressed mRNA in the absence of chemical substance, yeast gene YOR180C","gene YOR180C, Metabolism protein genes, DNA chip fluorescence ratio",1.1
same,"The level of expressed mRNA in the presence of chemical substance/The level of expressed mRNA in the absence of chemical substance, yeast gene YOR316C","gene YOR316C (mitochondria-located protein gene), yeast cultured two hours with chemical substance, DNA chip fluorescence ratio to control",2.5
same,"The level of expressed mRNA in the presence of chemical substance/The level of expressed mRNA in the absence of chemical substance, yeast gene YOR363C","gene YOR363C, Metabolism protein genes, DNA chip fluorescence ratio",2.0
same,"The level of expressed mRNA in the presence of chemical substance/The level of expressed mRNA in the absence of chemical substance, yeast gene YPL040C","gene YPL040C (mitochondria-located protein gene), yeast cultured two hours with chemical substance, DNA chip fluorescence ratio to control",1.0
same,"The level of expressed mRNA in the presence of chemical substance/The level of expressed mRNA in the absence of chemical substance, yeast gene YPL134C","gene YPL134C (mitochondria-located protein gene), yeast cultured two hours with chemical substance, DNA chip fluorescence ratio to control",1.0
same,"The level of expressed mRNA in the presence of chemical substance/The level of expressed mRNA in the absence of chemical substance, yeast gene YPR184W","gene YPR184W, Metabolism protein genes, DNA chip fluorescence ratio",1.4
same,level of expressed mRNA in the presence of chemical substance / level in the absence of chemical substance,yeast gene YAL018C,1.9
same,The level of expressed mRNA in the presence of chemical substance/The level of expressed mRNA in the absence of chemical substance,yeast gene YAL053W,0.9
same,level of expressed mRNA in the presence of chemical substance / level in the absence of chemical substance,yeast gene YAR047C,1.7
same,level of expressed mRNA in the presence of chemical substance / level in the absence of chemical substance,yeast gene YAR064W,0.9
same,level of expressed mRNA in the presence of chemical substance / level in the absence of chemical substance,yeast gene YBL044W,2.7
same,The level of expressed mRNA in the presence of chemical substance/The level of expressed mRNA in the absence of chemical substance,yeast gene YBL048W,7.9
same,The level of expressed mRNA in the presence of chemical substance/The level of expressed mRNA in the absence of chemical substance,yeast gene YBL107C,1.1
same,level of expressed mRNA in the presence of chemical substance / level in the absence of chemical substance,yeast gene YBR012C,1.7
same,level of expressed mRNA in the presence of chemical substance / level in the absence of chemical substance,yeast gene YBR066C,1.3
same,level of expressed mRNA in the presence of chemical substance / level in the absence of chemical substance,yeast gene YBR124W,1.4
same,level of expressed mRNA in the presence of chemical substance / level in the absence of chemical substance,yeast gene YBR162C,0.5
same,level of expressed mRNA in the presence of chemical substance / level in the absence of chemical substance,yeast gene YBR287W,1.9
same,level of expressed mRNA in the presence of chemical substance / level in the absence of chemical substance,yeast gene YCL042W,2.5
same,level of expressed mRNA in the presence of chemical substance / level in the absence of chemical substance,yeast gene YCL056C,1.4
same,level of expressed mRNA in the presence of chemical substance / level in the absence of chemical substance,yeast gene YCR007C,1.6
same,level of expressed mRNA in the presence of chemical substance / level in the absence of chemical substance,yeast gene YDL046W,1.4
same,The level of expressed mRNA in the presence of chemical substance/The level of expressed mRNA in the absence of chemical substance,yeast gene YDL072C,1.1
same,The level of expressed mRNA in the presence of chemical substance/The level of expressed mRNA in the absence of chemical substance,yeast gene YDL204W,1.9
same,The level of expressed mRNA in the presence of chemical substance/The level of expressed mRNA in the absence of chemical substance,yeast gene YDL222C,1.1
same,level of expressed mRNA in the presence of chemical substance / level in the absence of chemical substance,yeast gene YDR090C,3.0
